For one compound, IC50 results are on record in ChEMBL document CHEMBL5728023, “Inhibitors of TRPC6” (2020).

The assay has as its target T1, Short transient receptor potential channel 6 (Homo sapiens, UniProt Q9Y210).
T1 sequence (Q9Y210 whole entry): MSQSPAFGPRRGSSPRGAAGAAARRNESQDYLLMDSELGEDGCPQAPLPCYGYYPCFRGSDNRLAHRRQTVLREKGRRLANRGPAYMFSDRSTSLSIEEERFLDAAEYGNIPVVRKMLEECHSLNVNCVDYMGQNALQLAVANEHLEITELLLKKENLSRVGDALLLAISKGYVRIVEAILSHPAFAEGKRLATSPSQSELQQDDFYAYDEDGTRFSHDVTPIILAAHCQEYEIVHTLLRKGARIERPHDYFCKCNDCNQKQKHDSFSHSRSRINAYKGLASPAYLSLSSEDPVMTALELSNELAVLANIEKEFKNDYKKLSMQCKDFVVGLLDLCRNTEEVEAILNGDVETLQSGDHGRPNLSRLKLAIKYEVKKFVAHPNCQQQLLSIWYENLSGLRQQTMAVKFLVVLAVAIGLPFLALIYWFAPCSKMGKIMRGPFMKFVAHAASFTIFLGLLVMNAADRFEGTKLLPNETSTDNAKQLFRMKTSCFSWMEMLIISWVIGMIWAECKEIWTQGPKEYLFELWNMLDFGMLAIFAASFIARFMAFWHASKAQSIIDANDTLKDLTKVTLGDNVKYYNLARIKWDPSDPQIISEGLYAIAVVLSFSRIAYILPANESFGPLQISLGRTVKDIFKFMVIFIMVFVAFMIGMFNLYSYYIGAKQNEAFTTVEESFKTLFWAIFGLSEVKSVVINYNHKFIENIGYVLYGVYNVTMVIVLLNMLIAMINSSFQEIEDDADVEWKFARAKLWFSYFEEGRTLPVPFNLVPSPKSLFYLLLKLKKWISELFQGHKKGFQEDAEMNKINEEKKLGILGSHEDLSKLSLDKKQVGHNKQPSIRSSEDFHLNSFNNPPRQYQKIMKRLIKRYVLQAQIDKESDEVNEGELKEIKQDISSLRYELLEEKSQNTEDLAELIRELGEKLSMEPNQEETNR
Put plainly: High Throughput Screening Assay: This screening assay measures TRPC6 (transient receptor potential cation channel, subfamily C, member 6) ion channel activation via addition either of the commercially available DAG ligand analogue OAG (1-oleoyl-2-acetyl-sn-glycerol) or of the TRPC6 agonist 1-[1-(4,5,6,7,8-pentahydrocyclohepta[2,1-d]thiophen-2-ylcarbonyl)-4-piperidyl]-3-hydrobenzimidazol-2-one (GSK1702934A). The assay utilizes a FLIPR fluorescent calcium sensor 4-(6-Acetoxymethoxy-2,7-difluoro-3-oxo-9-xanthenyl)-4′-methyl-2,2′-(ethylenedioxy)dianiline-N,N,N′,N′-tetraacetic acid tetrakis(acetoxymethyl) ester (Fluo4/AM) […]. Changes (increases) in intracellular membrane calcium concentration potential as measured by the fluorescent signal increase during membrane depolarization provide a measurement of channel activity.The commercially available HEK293/TREx line (Invitrogen) was stably transfected with a TRPC6 construct and screened by conventional calcium imaging to find clones with TRPC6 expression following stimulation with 1 μg/ml tetracycline. These cells were maintained in the growth medium recommended by the manufacturer supplemented with 100 μg/ml hygromycin to promote retention of the TRPC6 construct. […]. The format is […].

Turning to `CCOc1cc(C(=O)N2C3CCC2CC(c2ccc(N)nn2)C3)ncc1Oc1ccc(F)cc1` (stereo unspecified), the 50% inhibitory concentration (IC50) (usually the concentration needed to halve the response being measured) came to 2.1 µM.
